Test results from the NIST ThermoML archive (doi:10.1016/j.tca.2015.01.022).
Several values for one entry are separate records, joined by “and”; a condition that tells them apart may be missing. Identical values can stand only once.

Assay: molar heat capacity at constant pressure
Conditions: 101.33 kPa, Small (less than 1 g) adiabatic calorimetry

CCCCCCCC[n+]1ccn(C)c1.F[B-](F)(F)F [1-methyl-3-octylimidazolium tetrafluoroborate]
molar heat capacity at constant pressure
Conditions | Crystal | Glass
5 K | 1.51 J/K/mol | 1.78 J/K/mol
5.07 K | – | 1.855 J/K/mol
5.13 K | 1.622 J/K/mol | –
5.35 K | – | 2.152 J/K/mol
5.41 K | 1.892 J/K/mol | –
5.63 K | – | 2.475 J/K/mol
5.69 K | 2.194 J/K/mol | –
5.92 K | – | 2.835 J/K/mol
5.98 K | 2.524 J/K/mol | –
6.24 K | – | 3.263 J/K/mol
6.3 K | 2.928 J/K/mol | –
6.6 K | – | 3.776 J/K/mol
6.66 K | 3.407 J/K/mol | –
6.96 K | – | 4.337 J/K/mol
7.03 K | 3.928 J/K/mol | –
7.33 K | – | 4.94 J/K/mol
7.4 K | 4.511 J/K/mol | –
7.7 K | – | 5.576 J/K/mol
7.78 K | 5.114 J/K/mol | –
8.08 K | – | 6.258 J/K/mol
8.15 K | 5.768 J/K/mol | –
8.46 K | – | 6.988 J/K/mol
8.54 K | 6.47 J/K/mol | –
8.84 K | – | 7.752 J/K/mol
8.92 K | 7.205 J/K/mol | –
9.23 K | – | 8.549 J/K/mol
9.31 K | 7.974 J/K/mol | –
9.61 K | – | 9.38 J/K/mol
9.7 K | 8.786 J/K/mol | –
10 K | 9.42 J/K/mol | 10.23 J/K/mol and 10.24 J/K/mol
10.1 K | 9.617 J/K/mol | –
10.5 K | – | 11.4 J/K/mol
10.6 K | 10.74 J/K/mol | –
11.11 K | – | 12.83 J/K/mol
11.21 K | 12.14 J/K/mol | –
11.73 K | – | 14.33 J/K/mol
11.82 K | 13.61 J/K/mol | –
12.34 K | – | 15.89 J/K/mol
12.44 K | 15.14 J/K/mol | –
12.96 K | – | 17.5 J/K/mol
13.07 K | 16.72 J/K/mol | –
13.58 K | – | 19.15 J/K/mol
13.69 K | 18.35 J/K/mol | –
14.2 K | – | 20.8 J/K/mol
14.32 K | 20 J/K/mol | –
14.83 K | – | 22.52 J/K/mol
14.96 K | 21.77 J/K/mol | –
15 K | 21.91 J/K/mol | 23.07 J/K/mol
15.57 K | – | 24.74 J/K/mol
15.71 K | 23.92 J/K/mol | –
16.43 K | – | 27.33 J/K/mol
16.57 K | 26.44 J/K/mol | –
17.29 K | – | 29.78 J/K/mol
17.43 K | 28.91 J/K/mol | –
18.15 K | – | 32.35 J/K/mol
18.3 K | 31.39 J/K/mol | –
19.01 K | – | 34.88 J/K/mol
19.17 K | 33.9 J/K/mol | –
19.88 K | – | 37.39 J/K/mol
20 K | 36.32 J/K/mol | 37.79 J/K/mol
20.05 K | 36.43 J/K/mol | –
21.09 K | – | 41.05 J/K/mol
21.26 K | 40.04 J/K/mol | –
22.65 K | – | 45.73 J/K/mol
22.82 K | 44.72 J/K/mol | –
24.21 K | – | 50.47 J/K/mol
24.39 K | 49.42 J/K/mol | –
25 K | 51.22 J/K/mol | 52.78 J/K/mol
25.78 K | – | 55.12 J/K/mol
25.97 K | 54.13 J/K/mol | –
27.35 K | – | 59.68 J/K/mol
27.55 K | 58.67 J/K/mol | –
28.87 K | – | 64.05 J/K/mol
29.08 K | 63.06 J/K/mol | –
30 K | 65.66 J/K/mol | 67.29 J/K/mol
30.42 K | – | 68.44 J/K/mol
30.66 K | 67.49 J/K/mol | –
32.16 K | – | 73.29 J/K/mol
32.42 K | 72.33 J/K/mol | –
34.07 K | – | 78.36 J/K/mol
34.34 K | 77.4 J/K/mol | –
35 K | 79.1 J/K/mol | 80.71 J/K/mol
35.98 K | – | 83.21 J/K/mol
36.27 K | 82.31 J/K/mol | –
37.9 K | – | 87.91 J/K/mol
38.19 K | 87.1 J/K/mol | –
39.82 K | – | 92.51 J/K/mol
40 K | 91.48 J/K/mol | 92.99 J/K/mol
40.12 K | 91.75 J/K/mol | –
41.83 K | – | 97.3 J/K/mol
42.14 K | 96.59 J/K/mol | –
43.94 K | – | 102.2 J/K/mol
44.27 K | 101.5 J/K/mol | –
45 K | 103.2 J/K/mol | 104.6 J/K/mol
46.06 K | – | 107 J/K/mol
46.4 K | 106.3 J/K/mol | –
48.18 K | – | 111.7 J/K/mol
48.53 K | 111 J/K/mol | –
50 K | 114.1 J/K/mol | 115.6 J/K/mol
50.3 K | – | 116.2 J/K/mol
50.66 K | 115.5 J/K/mol | –
52.42 K | – | 120.6 J/K/mol
52.79 K | 119.8 J/K/mol | –
54.54 K | – | 124.8 J/K/mol
54.93 K | 124 J/K/mol | –
56.66 K | – | 128.7 J/K/mol
57.07 K | 128 J/K/mol | –
58.79 K | – | 132.7 J/K/mol
59.21 K | 131.9 J/K/mol | –
60 K | 133.3 J/K/mol | 135 J/K/mol
60.93 K | – | 136.6 J/K/mol
61.36 K | 135.7 J/K/mol | –
63.07 K | – | 140.4 J/K/mol
63.51 K | 139.5 J/K/mol | –
65.21 K | – | 144.2 J/K/mol
65.66 K | 143 J/K/mol | –
67.34 K | – | 147.9 J/K/mol
67.81 K | 146.6 J/K/mol | –
69.48 K | – | 151.6 J/K/mol
69.96 K | 150.1 J/K/mol | –
70 K | 150.1 J/K/mol | 152.5 J/K/mol
71.72 K | – | 155.5 J/K/mol
72.22 K | 153.7 J/K/mol | –
74.07 K | – | 159.5 J/K/mol
74.59 K | 157.4 J/K/mol | –
76.42 K | – | 163.4 J/K/mol
76.96 K | 161 J/K/mol | –
78.77 K | – | 167.3 J/K/mol
79.33 K | 164.5 J/K/mol | –
79.7 K | 165.1 J/K/mol | –
80 K | 165.4 J/K/mol | 169.5 J/K/mol
80.09 K | 165.7 J/K/mol | –
80.17 K | – | 169.7 J/K/mol
81.13 K | – | 171.2 J/K/mol
81.61 K | 167.8 J/K/mol | –
81.71 K | 167.9 J/K/mol | –
81.87 K | 168.2 J/K/mol | –
81.93 K | – | 172.6 J/K/mol
83.39 K | 170.3 J/K/mol | –
83.49 K | – | 175 J/K/mol
83.65 K | 170.6 J/K/mol | –
83.69 K | – | 175.5 J/K/mol
84.09 K | 171.2 J/K/mol | –
85.19 K | 172.7 J/K/mol | –
85.45 K | 173.2 J/K/mol | –
85.46 K | – | 178.2 J/K/mol
87 K | 175.2 J/K/mol | –
87.24 K | – | 181 J/K/mol
87.26 K | 175.7 J/K/mol | –
88.81 K | 177.8 J/K/mol | –
89.03 K | – | 183.9 J/K/mol
89.08 K | 178.2 J/K/mol | –
90 K | 179.5 J/K/mol | 185.3 J/K/mol
90.64 K | 180.3 J/K/mol | –
90.83 K | – | 186.6 J/K/mol
90.9 K | 180.7 J/K/mol | –
92.07 K | – | 188.5 J/K/mol
92.47 K | 182.7 J/K/mol | –
92.64 K | – | 189.3 J/K/mol
92.74 K | 183.1 J/K/mol | –
93.91 K | – | 191.2 J/K/mol
94.31 K | 185.2 J/K/mol | –
94.58 K | 185.6 J/K/mol | –
95.76 K | – | 193.9 J/K/mol
96.17 K | 187.6 J/K/mol | –
96.43 K | 187.9 J/K/mol | –
97.6 K | – | 196.8 J/K/mol
98.02 K | 190.1 J/K/mol | –
98.29 K | 190.4 J/K/mol | –
99.45 K | – | 199.4 J/K/mol
99.89 K | 192.4 J/K/mol | –
100 K | 192.5 J/K/mol | 200.2 J/K/mol
100.16 K | 192.7 J/K/mol | –
101.31 K | – | 202.1 J/K/mol
101.76 K | 194.8 J/K/mol | –
102.03 K | 195.1 J/K/mol | –
103.16 K | – | 204.8 J/K/mol
103.64 K | 197.2 J/K/mol | –
103.91 K | 197.5 J/K/mol | –
105.01 K | – | 207.5 J/K/mol
105.53 K | 199.4 J/K/mol | –
105.8 K | 199.8 J/K/mol | –
106.87 K | – | 210.2 J/K/mol
107.42 K | 201.7 J/K/mol | –
107.69 K | 202.1 J/K/mol | –
108.73 K | – | 212.9 J/K/mol
109.32 K | 204.1 J/K/mol | –
109.58 K | 204.4 J/K/mol | –
110 K | 204.9 J/K/mol | 214.7 J/K/mol
110.6 K | – | 215.5 J/K/mol
111.22 K | 206.4 J/K/mol | –
111.49 K | 206.7 J/K/mol | –
112.46 K | – | 218.2 J/K/mol
113.12 K | 208.7 J/K/mol | –
113.39 K | 209 J/K/mol | –
114.33 K | – | 220.8 J/K/mol
115.03 K | 210.9 J/K/mol | –
115.3 K | 211.2 J/K/mol | –
116.2 K | – | 223.4 J/K/mol
116.94 K | 213.1 J/K/mol | –
117.21 K | 213.4 J/K/mol | –
118.07 K | – | 226.1 J/K/mol
118.86 K | 215.4 J/K/mol | –
119.13 K | 215.7 J/K/mol | –
119.94 K | – | 228.8 J/K/mol
120 K | 216.7 J/K/mol | 229 J/K/mol
120.78 K | 217.6 J/K/mol | –
121.05 K | 218 J/K/mol | –
121.81 K | – | 231.5 J/K/mol
122.7 K | 219.9 J/K/mol | –
122.97 K | 220.2 J/K/mol | –
123.69 K | – | 234.2 J/K/mol
124.63 K | 222.1 J/K/mol | –
124.9 K | 222.4 J/K/mol | –
125.57 K | – | 237 J/K/mol
126.55 K | 224.3 J/K/mol | –
126.83 K | 224.6 J/K/mol | –
127.44 K | – | 239.7 J/K/mol
128.49 K | 226.5 J/K/mol | –
128.76 K | 226.8 J/K/mol | –
129.32 K | – | 242.4 J/K/mol
130 K | 228.2 J/K/mol | 243.4 J/K/mol
130.42 K | 228.7 J/K/mol | –
130.69 K | 229 J/K/mol | –
131.2 K | – | 245.1 J/K/mol
132.35 K | 230.9 J/K/mol | –
132.62 K | 231.1 J/K/mol | –
133.08 K | – | 248 J/K/mol
134.29 K | 233.1 J/K/mol | –
134.56 K | 233.4 J/K/mol | –
134.97 K | – | 250.8 J/K/mol
136.23 K | 235.3 J/K/mol | –
136.5 K | 235.6 J/K/mol | –
136.86 K | – | 253.6 J/K/mol
138.16 K | 237.5 J/K/mol | –
138.44 K | 237.8 J/K/mol | –
138.74 K | – | 256.4 J/K/mol
140 K | 239.7 J/K/mol | 258.2 J/K/mol
140.11 K | 239.7 J/K/mol | –
140.38 K | 240 J/K/mol | –
140.63 K | – | 259.2 J/K/mol
142.05 K | 242 J/K/mol | –
142.32 K | 242.3 J/K/mol | –
142.52 K | – | 262 J/K/mol
143.99 K | 244.3 J/K/mol | –
144.26 K | 244.6 J/K/mol | –
144.42 K | – | 264.9 J/K/mol
145.93 K | 246.5 J/K/mol | –
146.2 K | 246.8 J/K/mol | –
146.31 K | – | 267.8 J/K/mol
147.87 K | 248.8 J/K/mol | –
148.14 K | 249 J/K/mol | –
